# According to patent US20240139210A1, “TREATMENT OF NF-KB-MEDIATED DISEASE” (ReveraGen BioPharma, Inc., priority 2020, published 2024):
# Experiments:
# boys with DMD = experiment: CINRG 12-month prednisone clinical trial, external comparator; type: in vivo, human; settings: vamorolone 18-month treatment versus prednisone trial 12-month treatment
# Procedure: As with the CINRG DNHS comparators, group-matching criteria were prespecified in the iSAP, and 2 independent statisticians carried out the participant matching. […] There was no corresponding 12-month assessment in vamorolone-treated participants. (Assessments of vamorolone-treated trial participants were 0, 3, 6, and 18 months).
# (§1) Participants in the corticosteroid-treated CINRG DNHS group were treated for at least 18 months, but the total duration, dose, and regimens varied.
# [1] = system: ambulant boys aged 4 to <7 years with DMD; experiment: VBP15-004 adverse events; design: species or system human; settings: in vivo
# Excerpt: The second period of 24 weeks, where all participants receive vamorolone treatment on either of the two dose levels, will continue to capture additional longer-term safety and tolerability data.
# The study completion rate at 24 weeks was 94% (or 114 of 121 participants).
# Pre-specified AESIs typically for corticosteroids were higher in prednisone-treated subjects than vamorolone-treated subjects after 24 weeks of treatment (Table 10).
# participants with DMD = experiment: VBP15-LTE prespecified safety evaluation: height percentile for age and BMI; type: in vivo, human
# Procedure: Standing height and weight were assessed at each study visit. Height z-score, body mass index (BMI; kg/m 2), and BMI z-score were calculated centrally. AE reporting was done per protocol in the vamorolone trials.
# as §1
# Statistical analyses were done on paired longitudinal outcome data using an analysis of covariance (ANCOVA) approach with change from baseline (VBP15-002) to month 18 (midpoint of VBP15-LTE). Baseline response and age were included as covariates. For the vamorolone-treated participants, age was calculated as (date of informed consent minus birthdate)/365.25. For the DNHS participants, age was calculated as (date of baseline visit used minus birthdate)/365.25. The baseline visit for a DNHS participant was the first visit. […] Timed function tests were analyzed as velocity scores to limit the impact of participants who could not perform the test (velocity=0). Velocity measures are variance-stabilizing transformations, suppressing extreme raw outliers from raw values in seconds; these help with distributional assumptions of the statistical models/tests used. Raw data (seconds) are also reported. Velocity scores for TTSTAND (event/second), TTRW (meters/second), and TTCLIMB (event/second) were inputted as 0 at the first response missing due to inability to perform the test. All other data were observed values only, without imputation. No adjustments for multiplicity on inferential statistics were specified in the iSAP.
# [2] = 2.0 or 6.0 mg/kg/day for 18 months (groups C+D)
# [3] = vamorolone 18 months versus corticosteroid-naïve DNHS
smiles,measurement,setting,value
"C[C@@H]1C[C@H]2[C@@H]3CCC4=CC(=O)C=C[C@]4(C)C3=CC[C@]2(C)[C@@]1(O)C(=O)CO [Vamorolone, 17α,21-dihydroxy-16α-methylpregna-1,4,9(11)-triene-3,20-dione]","Mean height percentile for age, LS mean difference (SE), ANCOVA",boys with DMD,10.37 percentile
same,"clinically relevant psychiatric events, subjects",[1],no vamorolone-treated subjects
same,"moderate/severe behavior problems, subjects","[1]; male, human, 24 weeks",1.7%
same,"Mean BMI z-score, 18-month value (SD)",participants with DMD; [2],1.46 (0.62)
same,"Mean BMI z-score, change from baseline (SD)",participants with DMD; [2],0.411 (0.615)
same,"Mean height percentile for age, 18-month value (SD)",participants with DMD; [2],35.24 percentile
same,"Mean BMI z-score, change from baseline (SD)","participants with DMD; 2.0 or 6.0 mg/kg/day for 18 months (groups C+D), listed as vamorolone",0.41
same,LS Mean change in height percentiles for age,"participants with DMD; DMD children, N 22, 18 months treatment",+6.9
same,BMI change from baseline to 18 months of treatment,"participants with DMD; original dose group B (0.75 mg/kg/day, escalated)",0.5 kg/m 2
same,BMI change from baseline to 18 months of treatment,participants with DMD; original dose group C (2.0 mg/kg/day),1.11 kg/m 2
same,BMI change from baseline to 18 months of treatment,participants with DMD; original dose group D (6.0 mg/kg/day),2.55 kg/m 2
same,"Mean BMI z-score, LS mean difference (SE), ANCOVA",participants with DMD; [3],0.899 (0.204)
same,"Mean height percentile for age, LS mean difference (SE), ANCOVA",participants with DMD; [3],6.72 (3.48) percentile
